Test results taken from US6897227B2, “Prodrugs of proton pump inhibitors” (Winston Pharmaceuticals, Inc., priority 2002, dated 2005).

How the values were obtained:
[1] = Stability in Britton Robinson buffers (hydrolysis of prodrug to PPI, HPLC); conditions: Britton Robinson buffer, pH 7
Procedure: The stability of Compounds 1, 2, 3, 4 and 5 of the invention in aqueous solution (0.1 mg/mL) was investigated in Britton Robinson buffers of pH 3, pH 7, and pH 9, respectively. A solution of 0.1 mg/mL concentration of each compound in each buffer was prepared and the solutions were stored at 37° C. for 1 h and then the concentrations of test compounds were determined by HPLC.

[2] = tested on: histamine and carbachol-stimulated gastric acid secretion; experiment: Inhibition of gastric acid secretion of the conscious male rat, oral administration; type: in vivo, rat (Sprague-Dawley); conditions: sodium salt, read-out: % inhibition of gastric acid secretion between 3-5 hours after administration; for inhibition in vivo at 20 µmol/kg: 20 μmole/kg; for inhibition in vivo at 40 µmol/kg: 40 μmole/kg; for inhibition in vivo at 10 µmol/kg: 10 μmole/kg
Procedure: Male rats (the Sprague-Dawley strain) were used in this experiment. OMEPRAZOLE sodium salt or LANSOPRAZOLE sodium salt (20 mg) was suspended in 10 ml of 0.1 N NaHCO3. 40 mg of each of the sodium salts of Compound 1, Compound 2, Compound 3, Compound 4, Compound 6 Compound 9, Compound 12, mixture (1:1) of Compound 16 and 17, mixture (1:1) of Compound 18 and 19, mixture (1:1) of Compound 20 and 21, mixture (1:1) of Compound 22 and 23, Compound 27, mixture (1:1) of Compound 34 and 35, and Compound 36 were dissolved in 10 ml of 50 mM sodium phosphate buffer, pH 7.4. The doses administered to the rats were as follows (μmole per kg body weight of the rat): OMEPRAZOLE (10 μmole/kg), LANSOPRAZOLE (10 μmole/kg), Compound 120 μmole/kg, Compound 2 40 μmole/kg, Compound 320 μmole/kg, Compound 420 μmole/kg, Compound 620 μmole/kg, Compound 940 μmole/kg, Compound 1240 μmole/kg, mixture (1:1) of Compound 16 and 17 40 μmole/kg, mixture (1:1) of Compound 18 and 19 40 μmole/kg, mixture (1:1) of Compound 20 and 21 40 μmole/kg, mixture (1:1) of Compound 22 and 23 40 μmole/kg, Compound 27 40 μmole/kg, mixture (1:1) of Compound 34 and 35 40 μmole/kg, and Compound 3640 μmole/kg. These drug solutions were orally administered.
(§1) 3 hours after administration the abdomen of the rat was incised and the pylorus was ligated under light ether anethesia. Histamine (30 mg/kg) and carbachol (30 μg/kg) were subcutaneously injected for acid stimulation. Immediately the abdomen was closed. Two hours later, the esophagus was ligated and the stomach was removed. The gastric juice was collected and acid output was quantified by titration using 0.1 N NaOH solution. As a control experiment, 1 ml of 50 mM phosphate buffer (pH 7.4) solution was orally administrated without any prodrug or proton pump inhibitory drug. Acid output was quantified by same method as described above, showing maximum histamine and carbachol-stimulated gastric acid secretion. Percentage inhibition was calculated from the fractional responses elicited by the test compound and a control experiment.

[3] = Solubility in phosphate buffered saline buffer of pH 7.4 at 37° C.; type: physicochemical; conditions: aqueous buffer, sodium salts, phosphate buffered saline buffer pH 7.4, read-out: Solubility at 37° C. Conc.
Procedure: The solubility of the sodium salts of certain exemplary compounds of the present invention in a phosphate buffered saline buffer of pH 7.4 (50 mM sodium phosphate, 10 mM KCl, 0.1 M NaCl) and also in a more acidic Britton Robinson buffer of pH 3 (40 mM acetic acid, 40 mM phosphoric acid, 40 mM boric acid, 36 mM NaOH, and 19.6 mg/ml KCl) was also evaluated. […] The tested compounds were much less soluble little in the Britton Robinson buffer of pH 3, but still more soluble than the prior art compounds (a) through (f). This is understandable in view of the fact that in the buffer of pH 7.4 the compounds of the invention form a sodium salt, whereas in the buffer of pH 3 the compounds are less soluble free carboxylic acids. Thus, a solution of a sodium or other pharmaceutically acceptable salt of the compounds of the invention, or stated in an other way the compounds of the invention at pH 7 or above are highly soluble and therefore suitable for administration by intravenous injection.

[4] = Stability in plasma at 37° C. (gradient HPLC-UV), human plasma; type: in vitro ADME
Procedure: (§2) Exemplary test compounds (prodrugs) of the invention were incubated in plasma at 37° C., and the concentration of the compounds and also of the corresponding proton pump inhibitor compounds (PPI) were determined by a gradient HPLC-UV method. Although the half-lives of test compounds in plasma varies depending on their structure, nevertheless it is apparent that in plasma the compounds of the invention are converted into the corresponding proton pump inhibitor at a rate faster than the hydrolysis rate of the compound at neutral or near neutral pH.

[5] = Stability in plasma at 37° C. (gradient HPLC-UV), rat plasma; type: in vitro ADME
Procedure: as §2

gastric acid secretion = experiment: Inhibition of gastric acid secretion in rat, intravenous administration; type: in vivo
Procedure: as §1
Inhibition of gastric acid secretion after intravenous administration of compounds of the invention was also examined. Lansoprazole sodium salt (20 mg) was dissolved in 40% hydroxypropyl-beta-cyclodextrin. The compounds of the invention used in this experiment were dissolved in phosphate buffered saline solution of pH 7.4. Each compound was injected intravenously at a dose of 5 μmole/kg or 10 μmole/kg (μmole per kg body weight of rat) as indicated in Table 4 below. Between 2 to 4 hours after injection gastric juice was collected, and the percentage of inhibition was determined as described above.

[6] = Aqueous solubility (water / distilled water); type: physicochemical; conditions: free carboxylic acids
Source text: A further significant advantage of the proton pump inhibitor prodrugs of the present invention relative to the proton pump inhibitor prodrugs disclosed in U.S. Pat. No. 6,093,734, 6,559,167 and PCT Publication WO 00109498 and to all other prior art is their increased solubility.

solubility [3]	half-life [4]	half-life [5]	Compound	other results
> 50 mg/mL	10 min	81 min	COc1ccc(S(=O)(=O)n2c([S+]([O-])Cc3nccc(OCC(F)(F)F)c3C)nc3ccccc32)cc1C(=O)[O-].[Na+] (centres unmarked) [Compound 3, 2-methoxy-5-{2-[3-methyl-4-(2,2,2-trifluoro-ethoxy)-pyridin-2-ylmethanesulfinyl]benzimidazole-1-sulfonyl}-benzoic acid sodium salt]	half-life at 0.1 mg/mL [1]: > 50 h; inhibition in vivo at 20 µmol/kg [2]: 84.9 ± 13.6%
> 50 mg/mL	51 min	78 min	Cc1c(OCC(F)(F)F)ccnc1C[S+]([O-])c1nc2ccccc2n1S(=O)(=O)c1ccc(OCC(=O)[O-])c(OCC(=O)[O-])c1.[Na+].[Na+] (centres unmarked) [Compound 12, (2-Carboxymethoxy-4-{2-[3-methyl-4-(2,2,2-trifluoro-ethoxy)-pyridin-2-ylmethanesulfinyl]-benzimidazole-1-sulfonyl}-phenoxy)-acetic acid di-sodium salt]	inhibition in vivo at 40 µmol/kg [2]: 82.8 ± 9.6%; % inhibition of gastric acid secretion between 2-4 hours after i.v. administration (gastric acid secretion; 5 μmole/kg): 89.2 ± 6.8%; % inhibition of gastric acid secretion between 2-4 hours after i.v. administration (gastric acid secretion; 10 μmole/kg): 92.6 ± 2.9%
> 30 mg/mL	–	–	COc1ccc2c(c1)nc([S+]([O-])Cc1ncc(C)c(OC)c1C)n2S(=O)(=O)c1ccc(OCC(=O)[O-])cc1.[Na+] (centres unmarked) [Compound 9, {4-[5-methoxy-2-(4-methoxy-3,5-dimethyl-pyridin-2-ylmethanesulfinyl)-benzimidazole-1-sulfonyl]-phenoxy}-acetic acid sodium salt]	inhibition in vivo at 40 µmol/kg [2]: 74.4 ± 25.1%; solubility [6]: > 0.1 mg/mL
> 30 mg/mL	12 min	14 min	Cc1c(OCC(F)(F)F)ccnc1C[S+]([O-])c1nc2ccccc2n1S(=O)(=O)c1cccc(C(=O)O)c1 (centres unmarked) [Compound 1, 3-{2-[3-Methyl-4-(2,2,2-trifluoro-ethoxy)-pyridin-2-ylmethanesulfinyl]-benzimidazole-1-sulfonyl}benzoic acid]	half-life at 0.1 mg/mL [1]: > 50 h; inhibition in vivo at 20 µmol/kg [2]: 81.9 ± 7.1%; % inhibition of gastric acid secretion between 2-4 hours after i.v. administration (gastric acid secretion; 5 μmole/kg): 83.7 ± 10.1%; % inhibition of gastric acid secretion between 2-4 hours after i.v. administration (gastric acid secretion; 10 μmole/kg): 90.6 ± 2.1%
–	14 min	53 min	Cc1c(OCC(F)(F)F)ccnc1C[S+]([O-])c1nc2ccccc2n1S(=O)(=O)c1ccc(OCC(=O)NCCCC(=O)[O-])cc1C(C)C.[Na+] (centres unmarked) [Compound 11]	–
> 30 mg/mL	–	31 min	Cc1cc(OCC(=O)[O-])cc(C)c1S(=O)(=O)n1c([S+]([O-])Cc2nccc(OCC(F)(F)F)c2C)nc2ccccc21.[Na+] (centres unmarked) [Compound 5]	half-life at 0.1 mg/mL [1]: > 50 h
–	–	–	COc1ccc2nc([S+]([O-])Cc3ncc(C)c(OC)c3C)n(S(=O)(=O)c3ccc(OCC(=O)[O-])cc3)c2c1.[Na+] (centres unmarked) [Compound 10, {4-[6-methoxy-2-(4-methoxy-3,5-dimethyl-pyridin-2-ylmethanesulfinyl)-benzimidazole-1-sulfonyl]-phenoxy}-acetic acid sodium salt]	% inhibition of gastric acid secretion between 2-4 hours after i.v. administration (gastric acid secretion; 5 μmole/kg): 18.3 ± 11.9%
–	–	317 min	Cc1cc(OCC(=O)[O-])cc(C(C)C)c1S(=O)(=O)n1c([S+]([O-])Cc2nccc(OCC(F)(F)F)c2C)nc2ccccc21.[Na+] (centres unmarked) [Compound 39, 4-[2-{3-Methyl-4-(2,2,2-trifluoroethoxy)pyridin-2-yl-methanesulfinyl}-benzimidazole-1-sulfonyl]-3-isopropyl-5-methylphenoxyacetic acid sodium salt]	–
–	60 min	98 min	CCC(Oc1ccc(S(=O)(=O)n2c([S+]([O-])Cc3nccc(OCC(F)(F)F)c3C)nc3ccccc32)cc1)C(=O)[O-].[Na+] (centres unmarked) [Compound 4 Na salt, 2-(4-{2-[3-methyl-4-(2,2,2-trifluoro-ethoxy)-pyridin-2-ylmethanesulfinyl]-benzimidazole-1-sulfonyl}phenoxy)butyric acid sodium salt]	–
–	–	19 min	COc1ccc(S(=O)(=O)n2c([S+]([O-])Cc3nccc(OCC(F)(F)F)c3C)nc3ccccc32)cc1CCC(=O)[O-].[Na+] (centres unmarked) [Compound 36, 3-[2-Methoxy-5-{2-(3-methyl-4-(2,2,2-trifluoroethoxy)pyridin-2-yl-methanesulfinyl)-benzimidazole-1-sulfonyl}phenyl]propionic acid sodium salt]	inhibition in vivo at 40 µmol/kg [2]: 89.8 ± 6.8%
–	–	14 min	Cc1ccc(C(=O)[O-])cc1S(=O)(=O)n1c([S+]([O-])Cc2nccc(OCC(F)(F)F)c2C)nc2ccccc21.[Na+] (centres unmarked) [Compound 27, 3-{2-[3-Methyl-4-(2,2,2-trifluoro-ethoxy)-pyridin-2-yl-methanesulfinyl]-benzimidazole-1-sulfonyl}-4-methylbenzoic acid sodium salt]	inhibition in vivo at 40 µmol/kg [2]: 96.7 ± 1.3%
–	–	–	COc1ccc2[nH]c([S+]([O-])Cc3ncc(C)c(OC)c3C)nc2c1 (centres unmarked) [OMEPRAZOLE, 5-methoxy-2-(4-methoxy-3,5-dimethyl-pyridin-2-yl-methanesulfinyl)-1H-benzimidazole, reference compound]	inhibition in vivo at 10 µmol/kg [2]: 54.6 ± 10.4%
–	–	–	Cc1c(OCC(F)(F)F)ccnc1C[S+]([O-])c1nc2ccccc2[nH]1 (centres unmarked) [LANSOPRAZOLE, 2-[3-methyl-4-(2,2,2-trifluoroethoxy)pyridin-2-yl-methanesulfinyl]-1H-benzimidazole, reference compound]	inhibition in vivo at 10 µmol/kg [2]: 67.6 ± 14.7%; % inhibition of gastric acid secretion between 2-4 hours after i.v. administration (gastric acid secretion; 5 μmole/kg): 91.5 ± 5.0%
–	60 min	52 min	Cc1cc(OCC(=O)NCCCCCC(=O)[O-])cc(C)c1S(=O)(=O)n1c([S+]([O-])Cc2nccc(OCC(F)(F)F)c2C)nc2ccccc21.[Na+] (centres unmarked) [Compound 6, 6-[2-(3,5-Dimethyl-4-{2-[3-methyl-4-(2,2,2-trifluoro-ethoxy)-pyridin-2-ylmethanesulfinyl]-benzimidazole-1-sulfonyl}-phenoxy)acetylamino]hexanoic acid sodium salt]	inhibition in vivo at 20 µmol/kg [2]: 53.5 ± 18.3%
> 30 mg/mL	–	–	COCCCOc1ccnc(C[S+]([O-])c2nc3ccccc3n2S(=O)(=O)c2ccc(OCC(=O)[O-])cc2)c1C.[Na+] (centres unmarked) [Compound 8, (4-{2-[4-(3-Methoxy-propoxy)-3-methyl-pyridin-2-ylmethanesulfinyl]-benzimidazole-1-sulfonyl}-phenoxy)-acetic acid sodium salt]	–
